Laboratory results published in patent US9745282B2, “Indoline compounds as aldosterone synthase inhibitors” (Merck Sharp & Dohme Corp., priority 2012, dated 2017).

Assays:
human CYP11B2 = human CYP11B2 (Homo sapiens (Human), UniProt P19099); assay: V79-Human-CYP11B2 cell assay, modified protocol; assay type: cell-based; settings: V79 cells expressing human CYP11B2
Protocol: (§1) V79 cell lines stably expressing the either the human CYP11B2 or the human CYP11B1 enzyme were generated using a standard transfection protocol. V79 cells were transfected with plasmids pTriEx3-Hygro-hCyp11B2 or pTriEx3-Hygro-hCyp11B1 using Lipofectamine2000 reagent. V79 cells that stably express the human CYP11B2 or human CYP11B1 enzyme were selected for and maintained in DMEM supplemented with 10% FBS and 400 μg/mL hygromycin for 2 weeks. Single cell clones were generated by infinite dilution in DMEM supplemented with 10% FBS and 400 μg/mL hygromycin until single colonies were obtained. […] For testing of inhibitors, cells were harvested at 80% confluency with 0.05% Trypsan-EDTA, washed once in PBS, and reconstituted in DMEM+0.1% BSA media at a cell concentration of 600,000 cells/mL for the CYP11B2 assay and 280,000 cells/mL for the CYP11B1 assay. 25 μL of cells were added to a 384 well tissue culture treated plate and mixed with 0.3 μL of inhibitor or DMSO (1% final DMSO concentration) for 1 hour at 37° C., 5% CO2. After pre-incubation with inhibitor, the reaction was initiated by adding 5 μL of substrate (final concentration of 125 nM 11-deoxycorticosterone for the CYP11B2 assay or 250 nM 11-deoxycortisol for the CYP11B1 assay). The reaction was carried out for 3 hours at 37° C., 5% CO2 and was stopped by harvesting the supernatants. The amount of product in the supernatant (aldosterone for CYP11B2 assay and cortisol for the CYP11B1 assay) was measured using HTRF-based assay kit (Aldosterone HTRF-CisBio#64ALDPEB, Cortisol HTRF-CisBio #63IDC002-CORT). IC50s for the inhibitor were determined by plotting the amount of product formed against the concentration of inhibitor using sigmoidal dose-response curve (variable slope) fit in GraphPad.
(§2) For the CYP11B2 assay, cells were reconstituted in DMEM+0.1% BSA media at a cell concentration of 600,000 cells/mL and for the CYP11B1 assay cells were reconstituted in DMEM+0.1% BSA media at a cell concentration of 280,000 cells/mL. 25 μl of cells were added to a 384 well tissue culture treated plate and mixed with […] or DMSO (1% final DMSO concentration) for 1 hour at 37° C., 5% CO2.

human CYP11B1 = human CYP11B1 (Homo sapiens (Human), UniProt P15538); assay: V79-Human-CYP11B1 cell assay, modified protocol; assay type: cell-based; settings: V79 cells expressing human CYP11B1
Protocol: as §1, §2

human CYP11B2, sequence (P19099 25-503): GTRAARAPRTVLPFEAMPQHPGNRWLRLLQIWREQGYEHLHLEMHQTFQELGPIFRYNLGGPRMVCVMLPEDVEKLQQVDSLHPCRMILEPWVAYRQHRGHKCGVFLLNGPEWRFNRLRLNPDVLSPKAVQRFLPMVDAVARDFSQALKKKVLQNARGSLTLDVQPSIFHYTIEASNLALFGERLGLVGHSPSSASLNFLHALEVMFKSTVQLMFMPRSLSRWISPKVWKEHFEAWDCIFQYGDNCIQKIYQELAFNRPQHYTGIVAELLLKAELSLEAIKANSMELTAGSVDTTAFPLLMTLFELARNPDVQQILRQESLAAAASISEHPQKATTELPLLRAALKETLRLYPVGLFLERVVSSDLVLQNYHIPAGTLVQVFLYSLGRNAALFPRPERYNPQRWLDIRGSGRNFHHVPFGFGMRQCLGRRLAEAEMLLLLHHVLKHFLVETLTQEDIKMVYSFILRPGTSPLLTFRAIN
human CYP11B1, sequence (P15538 25-503): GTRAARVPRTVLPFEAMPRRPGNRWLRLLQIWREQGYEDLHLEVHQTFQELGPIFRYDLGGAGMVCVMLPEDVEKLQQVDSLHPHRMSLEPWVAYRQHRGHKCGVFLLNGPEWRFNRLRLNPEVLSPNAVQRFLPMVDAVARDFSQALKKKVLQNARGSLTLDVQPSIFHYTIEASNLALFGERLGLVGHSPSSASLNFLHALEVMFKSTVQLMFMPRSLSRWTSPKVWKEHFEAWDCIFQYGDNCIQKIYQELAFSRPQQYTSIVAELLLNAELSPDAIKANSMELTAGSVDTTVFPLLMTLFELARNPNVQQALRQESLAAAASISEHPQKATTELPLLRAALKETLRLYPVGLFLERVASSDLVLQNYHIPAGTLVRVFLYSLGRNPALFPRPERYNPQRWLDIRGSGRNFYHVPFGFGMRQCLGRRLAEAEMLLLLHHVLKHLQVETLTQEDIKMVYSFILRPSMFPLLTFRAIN

IC50 (human CYP11B2) [nM]	IC50 (human CYP11B1) [nM]	SMILES
6	3380	CC(=S)N1CCc2cc(-c3cccnc3)ccc21 [Example 34, 1-(5-(pyridin-3-yl)indolin-1-yl)ethanethione]
23	1380	CC(=O)n1ccc2cc(-c3cccnc3)ccc21 [Example 50, 1-Acetyl-5-pyridin-3-yl-1H-indole]
16	803	COc1cncc(-c2ccc3c(c2)CCN3C(C)=O)c1 [Example 54, 1-acetyl-5-(5-methoxypyridin-3-yl)-2,3-dihydro-1H-indole]
2.2	366	CC(=O)N1CCc2cc(-c3cnccc3C)ccc21 [Example 58, 1-acetyl-5-(4-methylpyridin-3-yl)-2,3-dihydro-1H-indole]
